Reference: ChEMBL document CHEMBL3400130, “Identification of apoptosis signal-regulating kinase 1 (ASK1) inhibitors among the derivatives of benzothiazol-2-yl-3-hydroxy-5-phenyl-1,5-dihydro-pyrrol-2-one” (Bioorg Med Chem, 2015)

How the values were obtained:
[1] = target: T1, Mitogen-activated protein kinase kinase kinase 5 (Homo sapiens, UniProt Q99683); experiment: Inhibition of recombinant ASK1 catalytic subunit (unknown origin) using MBP substrate and gamma-labeled 32P ATP incubated for 20 mins by liquid scintillation counting method
T1 sequence (Q99683 whole entry): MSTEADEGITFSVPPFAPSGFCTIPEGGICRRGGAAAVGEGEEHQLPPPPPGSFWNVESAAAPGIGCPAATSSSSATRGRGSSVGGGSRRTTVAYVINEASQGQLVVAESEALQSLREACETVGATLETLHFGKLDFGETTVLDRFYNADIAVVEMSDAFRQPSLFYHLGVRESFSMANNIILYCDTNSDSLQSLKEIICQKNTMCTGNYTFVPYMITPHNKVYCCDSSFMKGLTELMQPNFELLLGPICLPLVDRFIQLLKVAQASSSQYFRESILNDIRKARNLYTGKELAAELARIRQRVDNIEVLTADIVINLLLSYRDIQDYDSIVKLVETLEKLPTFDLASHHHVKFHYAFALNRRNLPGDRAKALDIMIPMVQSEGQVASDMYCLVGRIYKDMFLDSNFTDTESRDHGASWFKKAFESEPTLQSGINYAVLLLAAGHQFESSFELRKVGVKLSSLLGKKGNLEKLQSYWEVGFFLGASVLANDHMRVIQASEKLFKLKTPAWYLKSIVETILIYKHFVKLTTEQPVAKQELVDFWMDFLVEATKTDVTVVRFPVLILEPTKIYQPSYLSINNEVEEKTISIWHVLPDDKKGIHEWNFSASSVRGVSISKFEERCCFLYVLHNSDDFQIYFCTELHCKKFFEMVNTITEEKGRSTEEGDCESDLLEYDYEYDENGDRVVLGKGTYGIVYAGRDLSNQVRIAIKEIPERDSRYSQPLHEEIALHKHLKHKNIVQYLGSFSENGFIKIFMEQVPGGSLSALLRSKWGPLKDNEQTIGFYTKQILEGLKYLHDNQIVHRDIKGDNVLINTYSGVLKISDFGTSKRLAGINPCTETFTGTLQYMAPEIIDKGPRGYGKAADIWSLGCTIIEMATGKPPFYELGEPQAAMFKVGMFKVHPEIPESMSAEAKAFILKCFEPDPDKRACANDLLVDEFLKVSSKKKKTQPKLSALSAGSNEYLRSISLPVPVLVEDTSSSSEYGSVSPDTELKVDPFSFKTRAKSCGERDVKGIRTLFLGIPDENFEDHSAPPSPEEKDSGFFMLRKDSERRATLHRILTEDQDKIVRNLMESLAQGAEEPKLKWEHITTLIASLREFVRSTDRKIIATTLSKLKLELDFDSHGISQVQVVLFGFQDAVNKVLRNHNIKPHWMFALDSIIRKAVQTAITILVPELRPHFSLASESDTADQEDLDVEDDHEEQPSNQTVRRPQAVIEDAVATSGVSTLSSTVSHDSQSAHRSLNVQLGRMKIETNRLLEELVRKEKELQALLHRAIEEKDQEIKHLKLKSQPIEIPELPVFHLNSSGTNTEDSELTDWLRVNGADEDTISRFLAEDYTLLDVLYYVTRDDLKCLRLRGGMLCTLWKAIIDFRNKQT

[2] = target: T2, Aurora kinase A (Homo sapiens) (UniProt O14965); experiment: Inhibition of Aurora A (unknown origin) assessed as residual enzyme activity at 10 uM using kemptide substrate
T2 sequence (whole entry): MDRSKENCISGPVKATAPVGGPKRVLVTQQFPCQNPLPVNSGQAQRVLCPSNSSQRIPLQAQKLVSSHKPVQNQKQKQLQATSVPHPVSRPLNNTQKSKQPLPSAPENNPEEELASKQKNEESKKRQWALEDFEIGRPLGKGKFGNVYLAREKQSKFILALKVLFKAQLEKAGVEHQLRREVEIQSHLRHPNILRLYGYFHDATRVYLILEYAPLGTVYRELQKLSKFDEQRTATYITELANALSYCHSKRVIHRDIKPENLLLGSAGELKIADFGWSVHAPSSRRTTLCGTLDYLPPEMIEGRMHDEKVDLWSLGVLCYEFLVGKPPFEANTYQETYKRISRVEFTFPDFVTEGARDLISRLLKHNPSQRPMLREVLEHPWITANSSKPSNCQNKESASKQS

[3] = target: Mitogen-activated protein kinase 10 (Homo sapiens) (UniProt P53779); experiment: Inhibition of JNK3 (unknown origin) assessed as residual enzyme activity at 10 uM using JNK3tide substrate
Sequence of Mitogen-activated protein kinase 10 (Homo sapiens) (P53779 whole entry): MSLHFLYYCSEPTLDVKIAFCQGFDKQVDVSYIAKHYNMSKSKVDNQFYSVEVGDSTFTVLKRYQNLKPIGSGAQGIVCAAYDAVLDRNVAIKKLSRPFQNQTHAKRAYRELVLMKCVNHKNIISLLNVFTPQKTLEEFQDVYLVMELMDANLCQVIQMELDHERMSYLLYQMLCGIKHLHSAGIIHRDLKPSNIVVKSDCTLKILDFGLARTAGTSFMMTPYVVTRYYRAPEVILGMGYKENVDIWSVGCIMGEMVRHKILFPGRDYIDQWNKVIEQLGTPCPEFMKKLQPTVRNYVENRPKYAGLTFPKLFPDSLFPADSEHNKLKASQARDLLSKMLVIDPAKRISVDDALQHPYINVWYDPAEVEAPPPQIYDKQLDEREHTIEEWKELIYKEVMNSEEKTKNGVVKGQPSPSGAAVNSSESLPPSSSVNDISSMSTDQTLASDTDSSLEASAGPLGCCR

[4] = target: Angiopoietin-1 receptor (Homo sapiens) (UniProt Q02763); experiment: Inhibition of Tie2 (unknown origin) assessed as residual enzyme activity at 10 uM using TK Substrate 2 (poly Glu-Tyr) substrate
Sequence of Angiopoietin-1 receptor (Homo sapiens) (Q02763 whole entry): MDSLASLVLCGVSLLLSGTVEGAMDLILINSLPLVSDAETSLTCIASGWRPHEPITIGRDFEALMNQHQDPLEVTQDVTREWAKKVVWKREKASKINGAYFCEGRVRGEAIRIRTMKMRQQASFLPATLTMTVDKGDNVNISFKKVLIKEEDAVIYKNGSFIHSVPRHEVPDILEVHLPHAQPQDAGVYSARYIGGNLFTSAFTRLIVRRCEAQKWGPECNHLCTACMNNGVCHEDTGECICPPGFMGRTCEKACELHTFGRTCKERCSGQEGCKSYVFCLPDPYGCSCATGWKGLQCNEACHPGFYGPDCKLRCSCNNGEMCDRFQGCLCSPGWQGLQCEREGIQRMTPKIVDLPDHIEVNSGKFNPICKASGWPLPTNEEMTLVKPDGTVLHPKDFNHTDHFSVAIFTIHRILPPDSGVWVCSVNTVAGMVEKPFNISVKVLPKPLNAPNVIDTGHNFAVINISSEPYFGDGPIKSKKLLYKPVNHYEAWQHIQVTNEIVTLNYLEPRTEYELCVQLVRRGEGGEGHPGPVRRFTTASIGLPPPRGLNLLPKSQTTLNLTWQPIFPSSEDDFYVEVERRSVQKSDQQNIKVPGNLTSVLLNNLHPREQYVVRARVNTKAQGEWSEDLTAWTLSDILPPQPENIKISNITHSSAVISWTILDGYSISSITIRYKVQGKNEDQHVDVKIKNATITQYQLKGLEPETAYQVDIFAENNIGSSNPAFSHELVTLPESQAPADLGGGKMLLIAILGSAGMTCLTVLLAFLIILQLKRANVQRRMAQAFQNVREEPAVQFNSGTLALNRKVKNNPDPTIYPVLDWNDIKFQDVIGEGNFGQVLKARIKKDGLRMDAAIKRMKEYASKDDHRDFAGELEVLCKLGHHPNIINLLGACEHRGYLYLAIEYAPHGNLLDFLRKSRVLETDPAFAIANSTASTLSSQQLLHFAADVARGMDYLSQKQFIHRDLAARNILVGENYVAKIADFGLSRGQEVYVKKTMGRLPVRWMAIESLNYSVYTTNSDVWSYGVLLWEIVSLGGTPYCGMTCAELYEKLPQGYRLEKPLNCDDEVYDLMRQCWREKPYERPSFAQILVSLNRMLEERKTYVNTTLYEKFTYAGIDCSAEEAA

[5] = target: Casein kinase II (Homo sapiens) (UniProt P67870+P68400+P19784); experiment: Inhibition of CK2 (unknown origin) assessed as residual enzyme activity at 10 uM using RRRDDDSDDD substrate peptide; assay type: protein-complex assay
[6] = target: T3, Mitogen-activated protein kinase kinase kinase 5 (Homo sapiens) (UniProt Q99683); experiment: Inhibition of recombinant ASK1 catalytic subunit (unknown origin) assessed as residual enzyme activity at 10 uM using MBP substrate and gamma-labeled 32P ATP incubated for 20 mins by liquid scintillation counting method
T3 sequence (whole entry): T1 sequence (Q99683 whole entry)

[7] = target: Fibroblast growth factor receptor 1 (Homo sapiens) (UniProt P11362); experiment: Inhibition of FGFR1 (unknown origin) assessed as residual enzyme activity at 10 uM using IGF-IRtide (12 to 527) substrate
Sequence of Fibroblast growth factor receptor 1 (Homo sapiens) (P11362 22-822 limits assumed): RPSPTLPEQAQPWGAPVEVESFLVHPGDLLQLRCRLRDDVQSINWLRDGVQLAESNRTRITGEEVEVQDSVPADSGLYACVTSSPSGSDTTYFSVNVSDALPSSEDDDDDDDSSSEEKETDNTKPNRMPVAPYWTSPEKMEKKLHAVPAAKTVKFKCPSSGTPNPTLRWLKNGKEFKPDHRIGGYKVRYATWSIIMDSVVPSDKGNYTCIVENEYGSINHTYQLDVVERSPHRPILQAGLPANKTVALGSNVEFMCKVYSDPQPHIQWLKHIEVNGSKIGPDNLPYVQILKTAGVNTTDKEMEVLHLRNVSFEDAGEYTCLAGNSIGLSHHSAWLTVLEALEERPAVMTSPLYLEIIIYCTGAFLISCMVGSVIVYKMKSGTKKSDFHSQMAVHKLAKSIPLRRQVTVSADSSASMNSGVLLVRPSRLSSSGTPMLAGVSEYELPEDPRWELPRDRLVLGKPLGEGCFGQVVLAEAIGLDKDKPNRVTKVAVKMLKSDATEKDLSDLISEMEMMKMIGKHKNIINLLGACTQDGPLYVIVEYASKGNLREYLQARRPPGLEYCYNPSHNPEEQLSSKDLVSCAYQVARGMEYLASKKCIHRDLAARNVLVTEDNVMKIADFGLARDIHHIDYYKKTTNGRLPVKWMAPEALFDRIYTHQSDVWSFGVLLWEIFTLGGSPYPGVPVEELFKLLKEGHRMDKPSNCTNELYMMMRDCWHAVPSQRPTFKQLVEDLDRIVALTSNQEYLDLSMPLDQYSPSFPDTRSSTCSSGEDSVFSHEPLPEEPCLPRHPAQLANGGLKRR

## O=C(C1=C(O)C(=O)N(c2nc3ccc(F)cc3s2)C1c1ccc(Br)cc1)c1ccco1 (stereo not drawn)
[1]
  IC50: 28.2 µM

## CCOc1ccc2nc(N3C(=O)C(O)=C(C(=O)c4cccs4)C3c3ccc(C)cc3)sc2c1 (stereo not drawn)
[2]
  Activity: 45.4%
[3]
  Activity: 100%
[4]
  Activity: 83.2%
[1]
  IC50: 4.4 µM
[5]
  Activity: 79.9%
[6]
  Activity: 27%
[7]
  Activity: 88.7%

## Cc1ccc(C(=O)C2=C(O)C(=O)N(c3nc4ccc(C)cc4s3)C2c2ccc(C(C)(C)C)cc2)cc1 (stereo not drawn)
[1]
  IC50: 4.4 µM

## O=C(C1=C(O)C(=O)N(c2nc3ccc(F)cc3s2)C1c1cccc(Br)c1)c1ccco1 (stereo not drawn)
[1]
  IC50: 29.5 µM

## COc1ccccc1C1C(C(=O)c2ccc(C)o2)=C(O)C(=O)N1c1nc2c(C)cc(C)cc2s1 (stereo not drawn)
[1]
  IC50: 35.5 µM

## CCOc1ccc(C2C(C(=O)c3cccs3)=C(O)C(=O)N2c2nc3ccc(C)cc3s2)cc1 (stereo not drawn)
[1]
  IC50: 9.1 µM

## CCCCOc1ccc(C2C(C(=O)c3ccc4c(c3)OCCO4)=C(O)C(=O)N2c2nc3ccc(Cl)cc3s2)cc1 (stereo not drawn)
[2]
  Activity: 35.2%
[3]
  Activity: 100%
[4]
  Activity: 100%
[1]
  IC50: 5.2 µM
[5]
  Activity: 99.3%
[6]
  Activity: 15.8%
[7]
  Activity: 36.2%

## O=C(C1=C(O)C(=O)N(c2nc3ccc(F)cc3s2)C1c1cccc(F)c1)c1ccco1 (stereo not drawn)
[1]
  IC50: 42.6 µM

## CCCOc1ccc(C2C(C(=O)c3ccc4c(c3)OCCO4)=C(O)C(=O)N2c2nc3ccc(Cl)cc3s2)cc1 (stereo not drawn)
[1]
  IC50: 5 µM

## Cc1ccc2nc(N3C(=O)C(O)=C(C(=O)c4ccco4)C3c3ccc(Cl)cc3)sc2c1 (stereo not drawn)
[1]
  IC50: 30.2 µM

## Cc1ccc(C(=O)C2=C(O)C(=O)N(c3nc4ccc(F)cc4s3)C2c2ccc(C(C)(C)C)cc2)o1 (stereo not drawn)
[2]
  Activity: 100%
[3]
  Activity: 100%
[4]
  Activity: 100%
[1]
  IC50: 1.55 µM
[5]
  Activity: 68.3%
[6]
  Activity: 32.6%
[7]
  Activity: 92.7%

## CCCOc1ccc(C2C(C(=O)c3ccc4c(c3)OCCO4)=C(O)C(=O)N2c2nc3ccc(C)cc3s2)cc1 (stereo not drawn)
[2]
  Activity: 49.5%
[3]
  Activity: 80%
[4]
  Activity: 99.2%
[1]
  IC50: 2 µM
[5]
  Activity: 81.8%
[6]
  Activity: 43%
[7]
  Activity: 22.6%

## CCOc1ccc(C(=O)C2=C(O)C(=O)N(c3nc4ccc(C)cc4s3)C2c2ccc(F)cc2)cc1 (stereo not drawn)
[1]
  IC50: 5.5 µM

## Cc1cc(C)c2nc(N3C(=O)C(O)=C(C(=O)c4ccc(Cl)cc4)C3c3ccc(C(C)C)cc3)sc2c1 (stereo not drawn)
[1]
  IC50: 6.3 µM

## Cc1ccc2nc(N3C(=O)C(O)=C(C(=O)c4ccc(F)cc4)C3c3ccc(Cl)cc3)sc2c1 (stereo not drawn)
[1]
  IC50: 2.9 µM

## Cc1ccc(C(=O)C2=C(O)C(=O)N(c3nc4ccc(F)cc4s3)C2c2ccc(C(C)(C)C)cc2)cc1 (stereo not drawn)
[1]
  IC50: 7.6 µM

## CCCCOc1ccc(C2C(C(=O)c3ccc4c(c3)OCCO4)=C(O)C(=O)N2c2nc3ccc(C)cc3s2)cc1 (stereo not drawn)
[2]
  Activity: 20.5%
[3]
  Activity: 100%
[4]
  Activity: 94.2%
[1]
  IC50: 4.6 µM
[5]
  Activity: 85.6%
[6]
  Activity: 19.8%
[7]
  Activity: 58.1%

## O=C(C1=C(O)C(=O)N(c2nc3ccc(F)cc3s2)C1c1cccc(Cl)c1)c1ccco1 (stereo not drawn)
[1]
  IC50: 28.2 µM

## CC(C)(C)c1ccc(C2C(C(=O)c3ccc4c(c3)OCCO4)=C(O)C(=O)N2c2nc3ccc(Cl)cc3s2)cc1 (stereo not drawn)
[2]
  Activity: 52.9%
[3]
  Activity: 100%
[4]
  Activity: 92.5%
[1]
  IC50: 2.5 µM
[5]
  Activity: 83.6%
[6]
  Activity: 12.3%
[7]
  Activity: 46.8%

## COc1ccc(C(=O)C2=C(O)C(=O)N(c3nc4ccc(F)cc4s3)C2c2cccc(F)c2)cc1 (stereo not drawn)
[1]
  IC50: 17 µM

## COc1ccc(C2C(C(=O)c3ccc(C)o3)=C(O)C(=O)N2c2nc3ccc(C)cc3s2)cc1OC (stereo not drawn)
[1]
  IC50: 38 µM

## CCCCOc1ccc(C2C(C(=O)c3ccc4c(c3)OCCO4)=C(O)C(=O)N2c2nc3ccc(Cl)cc3s2)cc1OCC (stereo not drawn)
[2]
  Activity: 28.8%
[3]
  Activity: 100%
[4]
  Activity: 78.8%
[1]
  IC50: 3.6 µM
[5]
  Activity: 89.7%
[6]
  Activity: 19.7%
[7]
  Activity: 18%

## CCOc1ccc2nc(N3C(=O)C(O)=C(C(=O)c4ccccc4)C3c3ccc(Cl)cc3)sc2c1 (stereo not drawn)
[2]
  Activity: 36.5%
[3]
  Activity: 100%
[4]
  Activity: 62.8%
[1]
  IC50: 4.2 µM
[5]
  Activity: 79.3%
[6]
  Activity: 16.2%
[7]
  Activity: 65.7%

## CCCCCOc1ccc(C2C(C(=O)c3ccc4c(c3)CC(C)O4)=C(O)C(=O)N2c2nc3ccc(F)cc3s2)cc1 (stereo not drawn)
[2]
  Activity: 28.4%
[3]
  Activity: 100%
[4]
  Activity: 68.4%
[1]
  IC50: 0.75 µM
[5]
  Activity: 92.6%
[6]
  Activity: 18.1%
[7]
  Activity: 26.9%

## Cc1cc(C)c2nc(N3C(=O)C(O)=C(C(=O)c4ccc(C)o4)C3c3ccc(C(C)C)cc3)sc2c1 (stereo not drawn)
[1]
  IC50: 2 µM

## CCOc1ccc2nc(N3C(=O)C(O)=C(C(=O)c4ccc(C)cc4)C3c3ccc(C(C)(C)C)cc3)sc2c1 (stereo not drawn)
[2]
  Activity: 52%
[3]
  Activity: 100%
[4]
  Activity: 100%
[1]
  IC50: 2 µM
[5]
  Activity: 97.8%
[6]
  Activity: 23.5%
[7]
  Activity: 40.3%

## CC(C)CCOc1cccc(C2C(C(=O)c3ccc4c(c3)CC(C)O4)=C(O)C(=O)N2c2nc3ccc(F)cc3s2)c1 (stereo not drawn)
[2]
  Activity: 44.7%
[3]
  Activity: 100%
[4]
  Activity: 100%
[1]
  IC50: 0.52 µM
[5]
  Activity: 83.4%
[6]
  Activity: 14%
[7]
  Activity: 100%

## Cc1cc(C)c2nc(N3C(=O)C(O)=C(C(=O)c4ccco4)C3c3ccccc3)sc2c1 (stereo not drawn)
[1]
  IC50: 63 µM

## COc1ccc2nc(N3C(=O)C(O)=C(C(=O)c4ccco4)C3c3ccc(Cl)cc3)sc2c1 (stereo not drawn)
[2]
  Activity: 48.1%
[3]
  Activity: 96.8%
[4]
  Activity: 66.4%
[1]
  IC50: 4.2 µM
[5]
  Activity: 73.9%
[6]
  Activity: 39.1%
[7]
  Activity: 46.4%

## O=C(C1=C(O)C(=O)N(c2nc3ccc(F)cc3s2)C1c1cccc(Cl)c1)c1cccs1 (stereo not drawn)
[2]
  Activity: 28.1%
[3]
  Activity: 89.9%
[4]
  Activity: 63.5%
[1]
  IC50: 4.5 µM
[5]
  Activity: 71.5%
[6]
  Activity: 27.6%
[7]
  Activity: 74.4%

## CCCCCOc1ccc(C2C(C(=O)c3ccc4c(c3)OCCO4)=C(O)C(=O)N2c2nc3ccc(C)cc3s2)cc1 (stereo not drawn)
[2]
  Activity: 28.1%
[3]
  Activity: 92.5%
[4]
  Activity: 59.9%
[1]
  IC50: 5.2 µM
[5]
  Activity: 90%
[6]
  Activity: 13.2%
[7]
  Activity: 25.5%

## Cc1ccc2nc(N3C(=O)C(O)=C(C(=O)c4ccco4)C3c3cccc(Br)c3)sc2c1 (stereo not drawn)
[1]
  IC50: 31 µM

## CCOc1ccc2nc(N3C(=O)C(O)=C(C(=O)c4ccccc4)C3c3ccc(C(C)(C)C)cc3)sc2c1 (stereo not drawn)
[1]
  IC50: 5 µM

## Cc1ccc2nc(N3C(=O)C(O)=C(C(=O)c4ccco4)C3c3ccc(Br)cc3)sc2c1 (stereo not drawn)
[1]
  IC50: 28.2 µM
